Results as given in the supplement of paper PMC10307832.

Legend:
Experiment in all cases: relative viability (nuclei count vs DMSO), 5 days (fraction); higher = more cells survive
[1] = compound: O=c1ncccn1[C@@H]1O[C@H](CO)[C@@H](O)[C@H]1O [Zebularine] + CC(=O)c1c(C)c2cnc(Nc3ccc(N4CCNCC4)cn3)nc2n(C2CCCC2)c1=O [Palbociclib] (partner 0.5 µM)
Procedure, shortened: (§1)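 Relative viability equals treated-well nuclei counts divided by vehicle-well nuclei counts. Counts came from 4× images of lung cancer cell lines grown in 1536-well plates for 5 days after pin-tool dosing on the day after seeding. Dosing used one drug alone or a fixed anchor-drug dose plus five library-drug doses (not always all listed) in √10 steps, and values are medians of duplicate plates.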

[2] = compound: O=c1ncccn1[C@@H]1O[C@H](CO)[C@@H](O)[C@H]1O [Zebularine] + O=C(CCCCCCC(=O)Nc1ccccc1)NO [Vorinostat] (partner 1 µM)
Procedure, shortened: as §1

[3] = compound: CC(C)CCN1c2nc(Nc3cc(F)c(O)c(F)c3)ncc2N(C)C(=O)C1C [BI-D1870] + CCNC(=O)c1noc(-c2cc(C(C)C)c(O)cc2O)c1-c1ccc(CN2CCOCC2)cc1 [Luminespib] (partner 0.01 µM)
Procedure, shortened: as §1

[4] = compound: O=c1ncccn1[C@@H]1O[C@H](CO)[C@@H](O)[C@H]1O [Zebularine] + COc1cccc2cc(-c3nc([C@H]4CC[C@H](C(=O)O)CC4)n4ncnc(N)c34)[nH]c12 [OSI-027] (partner 0.5 µM)
Procedure, shortened: as §1

UMC-11
relative viability ([1]; first compound 1 µM): 0.329
relative viability ([1]; first compound 3.162 µM): 0.315
relative viability ([1]; first compound 10 µM): 0.312
relative viability ([1]; first compound 31.62 µM): 0.344
relative viability ([1]; first compound 100 µM): 0.308
relative viability ([2]; first compound 1 µM): 0.388
relative viability ([2]; first compound 3.162 µM): 0.359
relative viability ([2]; first compound 10 µM): 0.335
relative viability ([2]; first compound 31.62 µM): 0.331
relative viability ([2]; first compound 100 µM): 0.279
relative viability ([3]; first compound 0.04 µM): 1.06
relative viability ([3]; first compound 0.1265 µM): 1.05
relative viability ([3]; first compound 0.4 µM): 0.939
relative viability ([3]; first compound 1.265 µM): 1.08
relative viability ([3]; first compound 4 µM): 0.206
relative viability ([4]; first compound 1 µM): 0.544
relative viability ([4]; first compound 3.162 µM): 0.478
relative viability ([4]; first compound 10 µM): 0.297
relative viability ([4]; first compound 31.62 µM): 0.473
relative viability ([4]; first compound 100 µM): 0.407
